Laboratory results: patent US20140272041A1, “METHODS OF REDUCING PATHOGENS DURING PROCESSING OR POST-PROCESSING OF BEEF, POULTRY AND OTHER MEAT PRODUCTS” (BIRKO Corporation, priority 2009, published 2014)

Experiments:
Format in all cases: cell-based, Escherichia coli
E. coli ATCC 43888 = test: Reaction mixture streak plate, visual observation; details: 2.5 wt. % lactic acid only (Niaproof 08 0), room temperature
Procedure: The tests were performed at room temperature.

E. coli ATCC 12435 = test: Log kill / surviving titer in aqueous bacterial suspension, plating on TSA; details: for Log Kill (TSA): lactic acid alone, plated on TSA
Procedure: The “reaction” (i.e. interaction of antimicrobial agent and the target organism) was initiated by the addition of bacteria to the antimicrobial solution. The reaction was allowed to proceed for the respective time periods listed in Table I (i.e., at least 15 seconds each) and was terminated at the end of that time by adding quench buffer comprising 3.2 M potassium phosphate buffer, pH 7.2. The sample then was evaluated using serial 10-fold dilutions into sterile phosphate buffer as needed to determine, on Tryptic Soy agar (“TSA”), the titer of surviving bacteria. TSA is a medium that allows the growth of most bacteria.
The reduction in the bacterial count is expressed as the “log kill” which is defined as log10 [initial cfu/ml]−log10 [remaining cfu/ml]; where “cfu” refers to “colony forming unit.” All log kills reported herein are positive “base 10.”). Inasmuch as the standard assay mixture contained only ca. 25×10^6 cfu initially (equivalent to 7.398 log) the theoretical maximum kill that can be measured with this assay system is ca. 7.4 log and the practical measuring limit is ca. 6 log. Therefore, high levels of log reduction were monitored by plating reaction mixtures directly (without dilution) onto agar medium. The results are reported in Table I and illustrated in graph format in FIG. 1. […] The tests were replicated with E. coli ATCC 43888, a pathogenic strain of E. coli O157:H7. […]
After incubation for 15 seconds at ambient temperature the reaction was quenched by addition of phosphate buffer and the titer of surviving bacteria was determined by plating on TSA as described in the previous examples. […] The amphoteric and zwitterionic surfactants, which carry a net positive charge under the conditions of the reaction mixture, caused enhancement of the log kill by lactic acid. All anionic surfactants tested caused substantial enhancement of the log kill by lactic acid.

E. coli ATCC 14235 = test: Log kill in aqueous bacterial suspension, plating on TSA; details: lactic acid alone, ca. 75 deg. F.
Procedure: The tests were performed at ambient temperature (ca. 75 deg. F.). The “reaction” (i.e. interaction of antimicrobial agent and the target organism) was initiated by the addition of bacteria to the antimicrobial solution. The reaction was allowed to proceed for the respective time periods listed in Table I (i.e., at least 15 seconds each) and was terminated at the end of that time by adding quench buffer comprising 3.2 M potassium phosphate buffer, pH 7.2. The sample then was evaluated using serial 10-fold dilutions into sterile phosphate buffer as needed to determine, on Tryptic Soy agar (“TSA”), the titer of surviving bacteria. TSA is a medium that allows the growth of most bacteria.
The reduction in the bacterial count is expressed as the “log kill” which is defined as log10 [initial cfu/ml]−log10 [remaining cfu/ml]; where “cfu” refers to “colony forming unit.” All log kills reported herein are positive “base 10.”). Inasmuch as the standard assay mixture contained only ca. 25×10^6 cfu initially (equivalent to 7.398 log) the theoretical maximum kill that can be measured with this assay system is ca. 7.4 log and the practical measuring limit is ca. 6 log. Therefore, high levels of log reduction were monitored by plating reaction mixtures directly (without dilution) onto agar medium. The results are reported in Table I and illustrated in graph format in FIG. 1. […] The tests were replicated with E. coli ATCC 43888, a pathogenic strain of E. coli O157:H7.

E. coli SAC-2 [1] = test: Lactic acid treatment followed by contact with surfactant (bile salts) on VRBA; details: quenched, then plated on VRBA (bile salts, neutral pH)
Procedure: (§1) VRBA was designed for the enumeration of coliform bacteria by selecting against most other common bacteria. The principal difference between TSA and VRBA—besides the presence of indicator dyes in VRBA—is the inclusion of bile salts in the VRBA. Historically, bile salts were added to media used to culture intestinal bacteria in order to mimic the intestinal environment more closely. Bile salts also happen to be anionic surfactants.
(§2) Plating of serial dilutions of E. coli SAC-2 made in dilute phosphate buffer (pH 7.2) on VRBA was completed in less than 15 minutes after termination of individual reaction mixtures by addition of quench buffer (phosphate, pH 7.2). Thus, contact with the surfactant in VRBA was made in less than 15 minutes and more than 8 minutes after reaction termination.

E. coli SAC-2 [2] = test: Log kill / surviving titer in aqueous bacterial suspension, plating on TSA; details: for Log Kill (TSA): lactic acid alone, plated on TSA
Procedure: In each instance a target sample was employed using approximately 50 micro liters of an SAC-2 culture. E. coli “SAC-2,” was a Gram-negative strain isolated from municipal sewage. The tests were performed at room temperature, i.e., 75 deg. F. […] The results of each test sample were evaluated using a series of 10-fold dilutions as needed to determine, on a standard plating agar (TSA), the titer of bacteria that survived the antimicrobial treatment.
The same procedure was employed as in Example 2, but the only agent added to the target solution was Niaproof 08. No lactic acid was employed.
The mixture was then diluted and plated as previously described.
Increasing amounts of reagent were added to a series of test tubes. […] The bacterial titer of each mixture was determined by preparation and plating of serial dilutions on TSA.
[…] […] The amphoteric and zwitterionic surfactants, which carry a net positive charge under the conditions of the reaction mixture, caused enhancement of the log kill by lactic acid. All anionic surfactants tested caused substantial enhancement of the log kill by lactic acid.

E. coli ATTC 12435 = test: Lactic acid treatment followed by contact with surfactant (bile salts) on VRBA; details: quenched, then plated on VRBA (bile salts, neutral pH)
Procedure: as §1, §2
The observations were confirmed with E. coli ATTC 12435 as follows: […]

[3] = system: E. coli ATCC 43888 (O157:H7); test: Log kill in aqueous bacterial suspension, plating on TSA; details: for Lactic Acid (Log Kill): 2.5% lactic acid, 73 deg. F.; for Log Kill: lactic acid alone, ca. 75 deg. F., TSA
[4] = 2.5 wt. % lactic acid only (Niaproof 08 0.00)

CC(O)C(=O)O (stereo not drawn) [Lactic Acid, lactic acid, reference compound]
Description/Observation (E. coli ATCC 43888): Extensive bacterial growth. | Log Kill (Lactic Acid) (E. coli ATCC 12435; 2.5% lactic acid only, paired control of Niaproof 08, 15 seconds, 83 degrees F.): 2.28 log | Enhancement Factor (E. coli ATCC 12435; [4]): 1.0 | Log Kill (E. coli ATCC 12435; [4]): 2.283 log | Log Kill (TSA) (E. coli ATCC 12435; 15 secs): 1.431 log | Log Kill (TSA) (E. coli ATCC 12435; 30 secs): 2.217 log | Log Kill (TSA) (E. coli ATCC 12435; 45 secs): 3.246 log | Log Kill (TSA) (E. coli ATCC 12435; 60 secs): 3.722 log | Log Kill (E. coli ATCC 14235; 15 secs): 1.431 log | Log Kill (E. coli ATCC 14235; 30 secs): 2.217 log | Log Kill (E. coli ATCC 14235; 45 secs): 3.246 log | Log Kill (E. coli ATCC 14235; 60 secs): 3.722 log | Log Kill (VRBA) (E. coli SAC-2 [1]; lactic acid 15 secs): 0.509 log | Log Kill (VRBA) (E. coli SAC-2 [1]; lactic acid 30 secs): 2.812 log | Log Kill (VRBA) (E. coli SAC-2 [1]; lactic acid 45 secs): 3.330 log | Log Kill (Lactic Acid) (E. coli SAC-2 [2]; 2.5% lactic acid only, paired control of the surfactant in that line, 15 seconds, 74 to 80 degrees F.): 0.083 log | Enhancement Factor (log10 kill with lactic acid and surfactant divided by log10 kill with lactic acid only) (E. coli SAC-2 [2]; [4]): 1.00 | Log Kill (E. coli SAC-2 [2]; 2.5 wt. % lactic acid only (Niaproof 08 0.00), 15 seconds, room temperature): 0.456 log | Log Kill […] Lactic Acid (E. coli SAC-2 [2]; […] lactic acid only (Niaproof 08 0.00), 15 seconds, 75 degrees F.): 0.336 log | Log Kill (TSA) (E. coli SAC-2 [2]; 15 secs): 0.188 log | Log Kill (TSA) (E. coli SAC-2 [2]; 30 secs): 0.439 log | Log Kill (TSA) (E. coli SAC-2 [2]; 45 secs): 0.801 log | Log Kill (VRBA) (E. coli ATTC 12435; lactic acid 15 secs): 5.328 log | Log Kill (VRBA) (E. coli ATTC 12435; lactic acid 30 secs): 5.328 log | Log Kill (VRBA) (E. coli ATTC 12435; lactic acid 45 secs): 5.328 log | Log Kill (VRBA) (E. coli ATTC 12435; lactic acid 60 secs): 5.328 log | in 2.5% Lactic Acid (Log Kill) ([3]; 2.5% lactic acid only (sodium lauryl sulfate 0)): 2.2 log | Lactic Acid (Log Kill) ([3]; pH 2.19, 20 secs.): 2.44 log | Lactic Acid (Log Kill) ([3]; pH 2.42, 20 secs.): 2.71 log | Lactic Acid (Log Kill) ([3]; pH 2.59, 20 secs.): 1.81 log | Lactic Acid (Log Kill) ([3]; pH 2.74, 20 secs.): 1.21 log | Lactic Acid (Log Kill) ([3]; pH 2.86, 20 secs.): 0.732 log | Lactic Acid (Log Kill) ([3]; pH 3.24, 20 secs.): 0.117 log | Lactic Acid (Log Kill) ([3]; pH 3.67, 20 secs.): 0.041 log | in […] Lactic Acid (Log Kill) ([3]; […] lactic acid only (sodium lauryl sulfate 0), 15 seconds, 75 degrees F.): 0.403 log | Log Kill ([3]; 15 secs): 1.24 log | Log Kill ([3]; 30 secs): 1.76 log | Log Kill ([3]; 45 secs): 1.89 log | Log Kill ([3]; 60 secs): 2.63 log
